Columns and labels:
[1] = system: MMTV-PyMT tumors; experiment: Drug treatment in vivo of mice bearing MMTV-PyMT tumors; design: species or system mouse
Description: For tumor generation, tumor organoids were transplanted into the 4th mammary fat pad of FVB female mice. Rimadyl (0.067 mg/ml, Zoetis) was administered to mice in the drinking water from 24 h before surgery and for 48 h after surgery. Mice were also treated with temgesic (0.1 mg/kg, Indivior Europe Limited), 1 hr before and 12 h after surgery. Mice were anesthetized with isoflurane (2%, v/v) and their eyes were covered with duratears (Alcon). About 100,000 single cells derived from KB1P organoids or 200,000 single cells derived from MMTV-PyMT organoids were injected in 30 μl of BME (Amsbio, Cat. No. 3533-005-02). Mice were weighed and monitored three times a week after transplantation of tumor organoids. Tumor volume was measured with calipers three times weekly. The researcher performing the measurement of tumor volume was blinded to the treatment group. For survival experiments, endpoint was reached when tumor reached 2000 mm3. For specific experiments, reference is made to the schematic representations of treatment timelines depicted in the figures.
Once tumors were established and reached a size of ˜7×7 mm, mice were randomized into treatment groups with the following drug dosages and timeline: • AC+T treatment: every 14 days, cyclophosphamide (144 mg/kg, administered via intraperitoneal injection), doxorubicin (5 mg/kg, administered via intravenous injection) and docetaxel (25 mg/kg, resuspended in acetonitrile containing 0.1% acetic acid, administered via intravenous injection). Doxorubicin hydrochloride (Adriamycin) and cyclophosphamide (C), when combined in a treatment, are herein referred to as “AC”. Taxanes, as broadly described and disclosed herein, are referred to as “T”. […]

[2] = system: mouse splenic T cells; experiment: MTT assessment of mouse splenic T cell survival following chemotherapy treatment in vitro; type: cell-based; details: 10 nmol/L, 72 h
Description: About 100,000 T cells were seeded per well in a 96-well plate and treated with
increasing doses of docetaxel, paclitaxel, or carboplatin for 72 h. Next, T cells were incubated with Thiazolyl Blue Tetrazolium Bromide (0.5 mg/ml, Sigma Aldrich, Cat. No. 298-93-1) for 3 hr in the dark at 37 degrees Celsius. Subsequently, T cells were incubated for 16 h in the dark in a lysis buffer (40% dimerhylofrmamide, 0.55 mol/L sodium dodecyl sulfate, 2% acetic acid, 8.4 mmol/L HCl in MilliQ water). Plates were read with a 565 nm wavelength.

## CC(=O)O[C@@]12CO[C@@H]1C[C@H](O)[C@@]1(C)C(=O)[C@H](O)C3=C(C)[C@@H](OC(=O)[C@H](O)[C@@H](NC(=O)OC(C)(C)C)c4ccccc4)C[C@@](O)([C@@H](OC(=O)c4ccccc4)[C@H]21)C3(C)C [docetaxel]
[1]; depletion of CD4 alone, CD8 alone or both
  anti-tumor effects of docetaxel (survival) upon T cell depletion: abrogated the anti-tumor effects
[1]; docetaxel 25 mg/kg intravenous every 14 days vs vehicle
  tumor outgrowth: delayed tumor outgrowth
[1]; tumors isolated 24 h after the second docetaxel administration
  accumulation of mitotic figures in tumors: did not observe an accumulation of mitotic figures
[2]
  killing of T cells (MTT): did not induce significant killing of T cells
